What was measured:
ec308 SHV-5 = assay: Aztreonam potentiation (MPC@4), strain ec308 SHV-5; settings: for AZT MPC4 SHV-5 ec308: minimum BLI concentration inhibiting growth with aztreonam 4 μg/mL, tested up to 40 μg/mL
ec302 TEM-10 = assay: Aztreonam potentiation (MPC@4), strain ec302 TEM-10; settings: for AZT MPC4 TEM-10 ec302: minimum BLI concentration inhibiting growth with aztreonam 4 μg/mL, tested up to 40 μg/mL
KP1004 KPC-2 [1] = assay: Aztreonam potentiation (MPC@4), strain KP1004 KPC-2
EC1010 CMY-6 = assay: Aztreonam potentiation (MPC@4), strain EC1010 CMY-6
KP1010 SHV-12 = assay: Aztreonam potentiation (MPC@4), strain KP1010 SHV-12
KP1005 CTX-M-14 [2] = assay: Aztreonam potentiation (MPC@4), strain KP1005 CTX-M-14; settings: read-out: Aztreonam MIC
KP1009 CTX-M-15 = assay: Aztreonam potentiation (MPC@4), strain KP1009 CTX-M-15; settings: for AZT MPC4 CTX-M-15 KP1009: minimum BLI concentration inhibiting growth with aztreonam 4 μg/mL, tested up to 40 μg/mL
KP1004 KPC-2 [3] = assay: Biapenem potentiation (MPC@1), strain KP1004 KPC-2; type: cell-based; settings: minimum BLI concentration inhibiting growth with biapenem 1 μg/mL; tested up to 40 μg/mL
Method: (§1) Biapenem was present in the test medium at 1 μg/mL. […] Table 3 summarizes the BLI potency of biapenem potentiation (MPC@1) for two strains overexpressing class A (KPC) and class D (OXA-48) carbapenemases. Biapenem MIC for each strain is also shown.

KP1086 OXA-48 = assay: Biapenem potentiation (MPC@1), strain KP1086 OXA-48; type: cell-based; settings: minimum BLI concentration inhibiting growth with biapenem 1 μg/mL; tested up to 40 μg/mL
Method: as §1

AB1053 OXA-72 = assay: Meropenem potentiation (MPC@8), strain AB1053 OXA-72; type: cell-based, Acinetobacter baumannii; settings: minimum BLI concentration inhibiting growth with meropenem 8 μg/mL; tested up to 20 μg/mL
AB1054 OXA-23 = assay: Meropenem potentiation (MPC@8), strain AB1054 OXA-23; type: cell-based, Acinetobacter baumannii
biochemical = type: biochemical
[4] = target: purified class A, C and D enzymes (β-lactamases) (Enterobacter cloacae, UniProt P05364); assay: biochemical; type: biochemical
[5] = target: purified class A, C and D enzymes (β-lactamases) (Escherichia coli, UniProt Q9L5C7); assay: biochemical; type: biochemical
[6] = target: purified class A, C and D enzymes (β-lactamases) (Klebsiella pneumoniae, UniProt Q6XEC0); assay: biochemical; type: biochemical
[7] = target: purified class A, C and D enzymes (β-lactamases) (Klebsiella pneumoniae, UniProt Q9F663); assay: biochemical; type: biochemical
[8] = target: T1, purified class A, C and D enzymes (β-lactamases) (Pseudomonas aeruginosa, UniProt P24735); assay: biochemical; type: biochemical
T1 construct: rows headed: Ki (Pa-AmpC, NCF), uM; other: purified Pa-AmpC; nitrocefin (NCF) as reporter substrate

[9] = target: T2, purified class A, C and D enzymes (β-lactamases) (UniProt P0AD64, L31Q/G234S/E235K, species not given); assay: biochemical; type: biochemical; settings: read-out: Ki (SHV-12, NCF); purified SHV-12; nitrocefin (NCF) as reporter substrate
T2 construct: Ki (SHV-12, NCF), uM; other: purified SHV-12; nitrocefin (NCF) as reporter substrate
T2 sequence (P0AD64 1-286 L31Q/G234S/E235K): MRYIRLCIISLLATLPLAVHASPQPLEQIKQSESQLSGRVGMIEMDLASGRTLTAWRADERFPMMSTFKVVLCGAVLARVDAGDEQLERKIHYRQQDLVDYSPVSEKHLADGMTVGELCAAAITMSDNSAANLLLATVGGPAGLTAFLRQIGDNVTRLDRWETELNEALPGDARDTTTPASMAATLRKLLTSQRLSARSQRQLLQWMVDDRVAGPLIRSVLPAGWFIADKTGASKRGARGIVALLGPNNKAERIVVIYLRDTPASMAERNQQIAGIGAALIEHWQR

PAM1032/KPC-2 = assay: Biapenem potentiation MPC64 in PAM1032/KPC-2 (efflux proficient, overexpresses MexAB-OprM); type: cell-based, Pseudomonas aeruginosa
Method: (§2) Efflux of BLIs from Pseudomonas aeruginosa by the MexAB-OprM efflux pump was also evaluated. The plasmid expressing the gene encoding KPC-2 was introduced into two strains of P. aeruginosa, PAM1032 and PAM 1154 that overexpressed or lacked MexAB-OprM, respectively. […] Potency of BLIs to potentiate biapenem in these strains was determined.

PAM1154/KPC-2 = assay: Biapenem potentiation MPC64 in PAM1154/KPC-2 (efflux deficient, lacks MexAB-OprM); type: cell-based, Pseudomonas aeruginosa
Method: as §2

ECL1002 = assay: Aztreonam potentiation (MPC@4), strain ECL1002; settings: minimum BLI concentration inhibiting growth with aztreonam 4 μg/mL; tested up to 40 μg/mL
KP1005 CTX-M-14 [10] = assay: Tigemonam potentiation (MPC@4), strain KP1005 CTX-M-14

Chain of purified class A, C and D enzymes (β-lactamases) (Enterobacter cloacae, UniProt P05364) (P05364 21-381): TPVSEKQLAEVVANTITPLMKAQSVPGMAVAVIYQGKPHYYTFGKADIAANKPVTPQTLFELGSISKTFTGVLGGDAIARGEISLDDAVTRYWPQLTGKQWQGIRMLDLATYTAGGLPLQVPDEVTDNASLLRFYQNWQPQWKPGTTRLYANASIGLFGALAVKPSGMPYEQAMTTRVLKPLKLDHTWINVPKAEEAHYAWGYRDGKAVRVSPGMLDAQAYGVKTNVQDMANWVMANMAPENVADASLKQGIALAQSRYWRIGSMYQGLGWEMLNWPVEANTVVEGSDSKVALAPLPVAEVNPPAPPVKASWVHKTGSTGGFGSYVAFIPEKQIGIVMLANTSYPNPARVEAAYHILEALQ
T1 sequence (P24735 whole entry): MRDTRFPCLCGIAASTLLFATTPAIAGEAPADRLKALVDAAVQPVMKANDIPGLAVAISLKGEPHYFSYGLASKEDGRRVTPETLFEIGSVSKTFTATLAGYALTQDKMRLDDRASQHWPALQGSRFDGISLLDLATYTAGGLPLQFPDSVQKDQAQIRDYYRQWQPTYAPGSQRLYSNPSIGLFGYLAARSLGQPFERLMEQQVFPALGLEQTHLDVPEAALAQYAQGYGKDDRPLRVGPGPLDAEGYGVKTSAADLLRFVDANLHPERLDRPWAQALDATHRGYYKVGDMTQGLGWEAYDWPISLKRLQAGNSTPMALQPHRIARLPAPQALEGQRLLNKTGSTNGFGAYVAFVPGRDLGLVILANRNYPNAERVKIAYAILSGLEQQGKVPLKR
Chain of purified class A, C and D enzymes (β-lactamases) (Escherichia coli, UniProt Q9L5C7) (Q9L5C7 entry or part of it): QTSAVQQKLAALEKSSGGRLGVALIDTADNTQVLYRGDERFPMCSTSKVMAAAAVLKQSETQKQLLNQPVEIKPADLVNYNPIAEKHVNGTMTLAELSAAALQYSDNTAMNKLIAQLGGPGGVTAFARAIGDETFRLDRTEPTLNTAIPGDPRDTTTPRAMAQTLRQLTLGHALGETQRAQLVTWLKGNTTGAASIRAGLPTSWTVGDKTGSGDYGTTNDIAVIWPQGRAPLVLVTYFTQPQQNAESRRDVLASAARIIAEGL

| SMILES | BPM MPC1 KP1004 KPC-2 (KP1004 KPC-2 [3]) | BPM MPC1 OXA-48 KP1086 (KP1086 OXA-48) | MPM MPC8 AB1053 OXA-72 (AB1053 OXA-72) | MPM MPC8 AB1054 OXA-23 (AB1054 OXA-23) | Ki (biochemical) [nM] | Ki (P99, NCF), uM [4] | Ki (CTX-M-14, NCF), uM [5] | Ki (OXA-48, NCF), uM [6] | Ki (KPC-2, NCF), uM [7] | Ki [8] [nM] | Ki [9] [nM] | PAM1032/KPC-2 Biapenem MPC64 (PAM1032/KPC-2) | PAM1154/KPC-2 Biapenem MPC64 (PAM1154/KPC-2) | AZT MPC4 ECL1002 (ECL1002) | AZT MPC4 SHV-5 ec308 (ec308 SHV-5) | AZT MPC4 TEM-10 ec302 (ec302 TEM-10) | AZT MPC4 KPC-2 KP1004 (KP1004 KPC-2 [1]) | AZT MPC4 CMY-6 EC1010 (EC1010 CMY-6) | AZT MPC4 SHV-12 KP1010 (KP1010 SHV-12) | AZT MPC4 CTX-M-15 KP1009 (KP1009 CTX-M-15) | also measured |
| --- | --- | --- | --- | --- | --- | --- | --- | --- | --- | --- | --- | --- | --- | --- | --- | --- | --- | --- | --- | --- | --- |
| C[C@H]1[C@H](NC(=O)/C(=N\OC(C)(C)C(=O)O)c2csc(N)n2)C(=O)N1S(=O)(=O)O [Aztreonam, reference compound] | – | – | – | – | – | – | – | – | – | – | – | – | – | – | – | – | – | – | – | – | MIC (ec308 SHV-5; read-out: Aztreonam MIC): > 128 µg/mL; MIC (ec302 TEM-10; read-out: Aztreonam MIC): 128 µg/mL; MIC (KP1004 KPC-2 [1]; read-out: Aztreonam MIC): > 128 µg/mL; MIC (EC1010 CMY-6; read-out: Aztreonam MIC): > 128 µg/mL; MIC (KP1010 SHV-12; read-out: Aztreonam MIC): 64 µg/mL; MIC (KP1005 CTX-M-14 [2]): > 128 µg/mL; MIC (KP1009 CTX-M-15; read-out: Aztreonam MIC): > 128 µg/mL |
| COc1ccc2c(c1C(=O)[O-])O[B-](O)(O)CC2.[Na+].[Na+] [Compound 7, DISODIUM; 4,4-DIHYDROXY-8-METHOXY-5-OXA-4-BORANUIDABICYCLO[4.4.0]DECA-1(6),7,9-TRIENE-7-CARBOXYLATE] | X (X = MPC@1 ≤ 5 μg/mL) | X (X = MPC@1 ≤ 5 μg/mL) | X (X = MPC@1 ≤ 5 μg/mL) | X (key: X = MPC@1 ≤ 5 μg/mL; Y = 5 μg/mL < MPC@1 ≤ 20 μg/mL; Z = MPC@1 > 20 μg/mL) | < 100 | X (key: X = Ki ≤ 0.1 μM; Y = 0.1 μM < Ki ≤ 1 μM; Z = Ki > 1 μM) | X (key: X = Ki ≤ 0.1 μM; Y = 0.1 μM < Ki ≤ 1 μM; Z = Ki > 1 μM) | X (key: X = Ki ≤ 0.1 μM; Y = 0.1 μM < Ki ≤ 1 μM; Z = Ki > 1 μM) | X (key: X = Ki ≤ 0.1 μM; Y = 0.1 μM < Ki ≤ 1 μM; Z = Ki > 1 μM) | < 100 | < 100 | 2.5 | 0.6 | X (X = MPC@4 ≤ 5 μg/mL) | X (X = MPC@4 ≤ 5 μg/mL) | X (X = MPC@4 ≤ 5 μg/mL) | X (key: X = MPC@4 ≤ 5 μg/mL; Y = 5 μg/mL < MPC@4 ≤ 20 μg/mL; Z = MPC@4 > 20 μg/mL) | X (key: X = MPC@4 ≤ 5 μg/mL; Y = 5 μg/mL < MPC@4 ≤ 20 μg/mL; Z = MPC@4 > 20 μg/mL) | X (key: X = MPC@4 ≤ 5 μg/mL; Y = 5 μg/mL < MPC@4 ≤ 20 μg/mL; Z = MPC@4 > 20 μg/mL) | X (X = MPC@4 ≤ 5 μg/mL) | TIG MPC4 CTX-M-14 KP1005 (KP1005 CTX-M-14 [10]): X (key: X = MPC@4 ≤ 5 μg/mL; Y = 5 μg/mL < MPC@4 ≤ 20 μg/mL; Z = MPC@4 > 20 μg/mL) |
| O=C([O-])c1nccc2c1O[B-](O)(O)CC2.[Na+].[Na+] [Compound 6, DISODIUM; 4,4-DIHYDROXY-5-OXA-8-AZA-4-BORANUIDABICYCLO[4.4.0]DECA-1(6),7,9-TRIENE-7-CARBOXYLATE] | X (X = MPC@1 ≤ 5 μg/mL) | X (X = MPC@1 ≤ 5 μg/mL) | X (X = MPC@1 ≤ 5 μg/mL) | X (key: X = MPC@1 ≤ 5 μg/mL; Y = 5 μg/mL < MPC@1 ≤ 20 μg/mL; Z = MPC@1 > 20 μg/mL) | < 100 | X (key: X = Ki ≤ 0.1 μM; Y = 0.1 μM < Ki ≤ 1 μM; Z = Ki > 1 μM) | X (key: X = Ki ≤ 0.1 μM; Y = 0.1 μM < Ki ≤ 1 μM; Z = Ki > 1 μM) | X (key: X = Ki ≤ 0.1 μM; Y = 0.1 μM < Ki ≤ 1 μM; Z = Ki > 1 μM) | X (key: X = Ki ≤ 0.1 μM; Y = 0.1 μM < Ki ≤ 1 μM; Z = Ki > 1 μM) | < 100 | < 100 | 5 | 0.3 | X (X = MPC@4 ≤ 5 μg/mL) | Y (Y = 5 μg/mL < MPC@4 ≤ 20 μg/mL) | X (X = MPC@4 ≤ 5 μg/mL) | X (key: X = MPC@4 ≤ 5 μg/mL; Y = 5 μg/mL < MPC@4 ≤ 20 μg/mL; Z = MPC@4 > 20 μg/mL) | X (key: X = MPC@4 ≤ 5 μg/mL; Y = 5 μg/mL < MPC@4 ≤ 20 μg/mL; Z = MPC@4 > 20 μg/mL) | X (key: X = MPC@4 ≤ 5 μg/mL; Y = 5 μg/mL < MPC@4 ≤ 20 μg/mL; Z = MPC@4 > 20 μg/mL) | X (X = MPC@4 ≤ 5 μg/mL) | TIG MPC4 CTX-M-14 KP1005 (KP1005 CTX-M-14 [10]): Y (key: X = MPC@4 ≤ 5 μg/mL; Y = 5 μg/mL < MPC@4 ≤ 20 μg/mL; Z = MPC@4 > 20 μg/mL) |

From patent US10618918B2, “Substituted boronic acids as antimicrobials” (priority 2015, dated 2020)
